# Laboratory results reported in patent US20130122541A1, “MICROORGANISM PRODUCTION OF HIGH-VALUE CHEMICAL PRODUCTS, AND RELATED COMPOSITIONS, METHODS AND SYSTEMS” (The Regents of the University of Colorado, priority 2010, published 2013).
# Read-outs that look alike come from different tables or passages of the source.
# Legend:
# E. coli Mach1-T1R = test: MIC of 3-HP, microaerobic 96 well-plate, MOPS minimal media with supplements (Example 36); type: cell-based, Escherichia coli; conditions: increase of the 3-HP MIC, 24 h
# Experimental: 3-HP was obtained from TCI America (Portland, Oreg.). Significant acrylic acid and 2-oxydipropionic contamination was observed via HPLC analysis. Samples were subsequently treated by diethyl ether extraction to remove acrylic acid and a portion of the 2-oxydipropionic contaminants. Samples were then neutralized with 10 M NaOH to a final pH of 7.0. […] The working stock solution was used for the selection, growth rates and MIC evaluations in this example.
# Overnight cultures of strains were grown in 5 ml LB (with antibiotic where appropriate). A 1 v/v % was used to inoculate a 15 ml conical tube filled to the top with MOPS minimal media and capped. After the cells reached mid exponential phase, the culture was diluted to an OD600 of 0.200. The cells were further diluted 1:20 and a 10 ul aliquot was used to inoculate each well (˜10^4 cells per well).
# [1] = test system: Yeast strains (S288C background); test: microbe, parasite or virus in culture; type: cell-based, Saccharomyces cerevisiae; conditions: for average MIC Assay Result (g/L 3-HP): MIC of 3-HP; for average MIC Assay Result (g/L 3-HP) / MIC: S288C, SD media plus the named supplement(s); for MIC: Saccharomyces cerevisiae, read-out: Average MIC Assay Result (g/L 3-HP), MIC of 3-HP
# Experimental: The minimum inhibitory concentration (MIC) was determined aerobically in a 96 well-plate format. […] Media supplements were added according to levels reported in the Supplements Table, where specified. Overnight cultures of strains were grown in triplicate in 5 mL SD media with vitamins (Methods in Enzymology vol. 350, page 17 (2002)). A 1% (v/v) inoculum was introduced into a 5 ml culture of SD minimal media without vitamins. After the cells reached mid-exponential phase, the culture was diluted to an OD600 of 0.200. The cells were further diluted 1:5 and a 10 μL aliquot was used to inoculate each well of a 96 well plate (˜10^4 cells per well) to total volume of 100 uL. […] Plates were incubated for 72 hours at 30 C.
# [2] = test system: Yeast strains (S288C background); test: microbe, parasite or virus in culture; type: cell-based, Saccharomyces cerevisiae; conditions: for average MIC Assay Result (g/L 3-HP): MIC of 3-HP
# Experimental: The minimum inhibitory concentration (MIC) was determined anaerobically in a 96 well-plate format. […] A 1% (v/v) inoculum was introduced into a 5 ml culture of SD minimal media without vitamins. After the cells reached mid-exponential phase, the culture was diluted to an OD600 of 0.200. The cells were further diluted 1:5 and a 10 μL aliquot was used to inoculate each well of a 96 well plate (˜10^4 cells per well) to total volume of 100 uL. […] Plates were incubated for 72 hours at 30 C. […] Plates were sealed in biobag anaerobic chambers that contained gas generators for anaerobic conditions and incubated for 72 hours at 30 C.
# B. subtilis = test: MIC evaluation of 3-HP, B. subtilis aerobic, M9 media + glutamate, 96 well-plate, 24 h (Common Methods); type: cell-based; conditions: for Avg 24 hr ΔOD600: 3HP tolerance, B. subtilis 168, M9 + glu + trp plus the named supplement(s); for % Increase Over Control: ΔOD600 with named supplement(s) vs B. subtilis 168 without supplement
# Experimental: (§1) For MIC evaluations, the final results are expressed in chemical agent concentrations determined by analysis of the stock solution by HPLC (i.e., see Subsection IIIb).
# The minimum inhibitory concentration (MIC) was determined aerobically in a 96 well-plate format. […] Media supplements were added according to levels reported in the Supplements Table where specified. Overnight cultures of strains were grown in triplicate in 5 mL LB (with antibiotic where appropriate). A 1% (v/v) inoculum was introduced into a 5 ml culture of M9 minimal media+glutamate.
# E. coli = test: microbe, parasite or virus in culture; type: cell-based
# Experimental: as §1
# The minimum inhibitory concentration (MIC) was determined aerobically in a 96 well-plate format. […] Media supplements were added according to levels reported in the Supplements Table, where specified. Overnight cultures of strains were grown in triplicate in 5 mL LB (with antibiotic where appropriate). A 1% (v/v) inoculum was introduced into a 5 ml culture of M9 minimal media.
# [3] = 3-HP MIC with named supplement(s) vs S288C in SD without supplement, aerobic
# [4] = 3-HP MIC with named supplement(s) vs S288C in SD without supplement, anaerobic
# [5] = S288C, SD media plus the named supplement(s), anaerobic
# [6] = MIC of 3-HP for strain BW25113, M9 media with the named supplement(s), aerobic, 24-hour MIC evaluation
# [7] = increase of 3-HP MIC over BW25113 in M9 without supplements, M9 media with the named supplement(s), aerobic
structure (smiles),measurement,setting,value
"O=C(O)c1cccc(O)c1O [2,3-didyroxybenzoic acid, 2,3-dihydroxybenzoic acid]",MIC increase resulting from supplementation,E. coli Mach1-T1R,33%
CCC(=O)C(=O)O [2-oxobutyrate (B)],% Increase Over Control,[1]; [3],11%
same,average MIC Assay Result (g/L 3-HP),[1]; aerobic,50 g/L
same,% Increase Over Control,[2]; [4],2%
same,average MIC Assay Result (g/L 3-HP),[2]; [5],38 g/L
N[C@@H](CC(=O)O)C(=O)O [Aspartate],% Increase Over Control,[1]; [3],26%
same,MIC,[1]; aerobic,57 g/L
O=C(O)O [Bicarbonate],Avg 24 hr ΔOD600,B. subtilis,0.06
same,% Increase Over Control,B. subtilis,56%
O=C(O)CC(O)(CC(=O)O)C(=O)O [Citrate],Avg 24 hr ΔOD600,B. subtilis,0.30
same,% Increase Over Control,B. subtilis,674%
NC(=O)NCCC[C@H](N)C(=O)O [Citrulline (C)],average MIC Assay Result (g/L 3-HP),E. coli; [6],30 g/L 3-HP
same,% Increase Over Control,E. coli; [7],9%
same,% Increase Over Control,[1]; [3],28%
same,average MIC Assay Result (g/L 3-HP),[1]; aerobic,58 g/L
same,% Increase Over Control,[2]; [4],158%
same,average MIC Assay Result (g/L 3-HP),[2]; [5],97 g/L
NCC(=O)O [Glycine (B)],% Increase Over Control,E. coli,3%
same,average MIC Assay Result (g/L 3-HP),E. coli,28 g/L 3-HP
same,% Increase Over Control,[1]; [3],11%
same,average MIC Assay Result (g/L 3-HP),[1]; aerobic,50 g/L
same,% Increase Over Control,[2]; [4],60%
same,average MIC Assay Result (g/L 3-HP),[2]; [5],60 g/L
CSCC[C@H](N)C(=O)O [Methionine (B)],% Increase Over Control,E. coli,36%
same,average MIC Assay Result (g/L 3-HP),E. coli,38 g/L 3-HP
same,% Increase Over Control,[1],59%
same,% Increase Over Control,[2],167%
CSCC[C@H](N)C(=O)O [Methionine],Avg 24 hr ΔOD600,B. subtilis,0.15
same,% Increase Over Control,B. subtilis,282%
NCCCCN [Putrescine(C)],% Increase Over Control,[1],22%
same,% Increase Over Control,[2],56%
O=C(O)C1=C[C@@H](O)[C@@H](O)[C@H](O)C1 [Shikimate (A)],average MIC Assay Result (g/L 3-HP),E. coli; [6],28 g/L 3-HP
same,% Increase Over Control,E. coli; [7],3%
same,% Increase Over Control,[1]; [3],78%
same,average MIC Assay Result (g/L 3-HP),[1]; aerobic,80 g/L
same,% Increase Over Control,[2]; [4],60%
same,average MIC Assay Result (g/L 3-HP),[2]; [5],60 g/L
N[C@@H](Cc1c[nH]c2ccccc12)C(=O)O [Tryptophan (A)],% Increase Over Control,[1]; [3],20%
same,MIC,[1]; aerobic,54 g/L
same,% Increase Over Control,[2]; [4],47%
same,MIC,"[2]; Saccharomyces cerevisiae, read-out: Average MIC Assay Result (g/L 3-HP), MIC of 3-HP, S288C, SD media plus the named supplement(s), anaerobic",55 g/L
Cl.NC1CCSC1=O (centres unmarked) [homocysteine thiolactone hydrochloride],MIC increase resulting from supplementation,E. coli Mach1-T1R,60%
N[C@@H](CCO)C(=O)O [homoserine],MIC increase resulting from supplementation,E. coli Mach1-T1R,33%
CCC(=O)C(=O)O [oxobutanoate],MIC increase resulting from supplementation,E. coli Mach1-T1R,7%
Nc1ccc(C(=O)O)cc1 [p-aminobenzoate],Avg 24 hr ΔOD600,B. subtilis,0.07
same,% Increase Over Control,B. subtilis,89%
Nc1ccc(C(=O)O)cc1 [p-aminobenzoic acid],MIC increase resulting from supplementation,E. coli Mach1-T1R,7%
NNC(=O)c1ccc(O)cc1 [p-hydroxybenzoic acid hydrazide],MIC increase resulting from supplementation,E. coli Mach1-T1R,33%
N[C@@H](Cc1ccccc1)C(=O)O [phenylalanine],MIC increase resulting from supplementation,E. coli Mach1-T1R,33%
Cc1ncc(CO)c(CO)c1O.Cl [pyridoxine hydrochloride],MIC increase resulting from supplementation,E. coli Mach1-T1R,0%
C[C@@H](O)[C@H](N)C(=O)O [threonine],MIC increase resulting from supplementation,E. coli Mach1-T1R,3%
N[C@@H](Cc1c[nH]c2ccccc12)C(=O)O [tryptophan],MIC increase resulting from supplementation,E. coli Mach1-T1R,33%
N[C@@H](Cc1ccc(O)cc1)C(=O)O [tyrosine],MIC increase resulting from supplementation,E. coli Mach1-T1R,40%
